The results in this text go back to patent US5843437A, “A82846 antibiotics” (Eli Lilly and Company, priority 1995, dated 1998).

For test [1], the system named is Cultures A82846 and A82846.1. Kind of test: resistance to antibiotics, antibiotic sensitivity discs on seeded agar plates.
Another test has as its system A82846. Kind of test: resistance to antibiotics, sensitivity discs (Table III). The conditions noted are these: culture A82846. The test is classed as cell-based, Nocardia orientalis.
Another test concerns N. orientalis. The description is as above. It counts as cell-based, Nocardia orientalis.
Another test has as its system N. aerocolonigenes. Described as above. It counts as cell-based, Nocardia aerocolonigenes.
Test [2] relates to Staphylococcus aureus X400. The test is classed as cell-based. The settings on record: S. aureus X400, methicillin-resistant strain; agar dilution. On the procedure: (§1) The MIC's in Tables VII and VIII were determined by standard agar-dilution assays.
In test [3] the test system is Staphylococcus aureus V41. It counts as cell-based. The settings on record: S. aureus V41, penicillin-resistant strain; agar dilution. As for the experimental part:
as §1

The subject of test [4] is Haemophilus influenzae 76. It counts as cell-based. The conditions noted are these: H. influenzae 76, ampicillin-resistant strain; agar dilution. On the procedure: as §1
(In agar dilution the substance is mixed into plates at graded concentrations.)

Test [5] has as its system Streptococcus Group D 2041. It counts as cell-based. The settings on record: agar dilution. On the procedure: as §1
The subject of test [6] is Staphylococcus aureus X1.1. The test is classed as cell-based. The conditions noted are these: S. aureus X1.1; agar dilution. On the procedure:
as §1

In test [7] the test system is Staphylococcus epidermidis 270. It counts as cell-based. The settings on record: S. epidermidis 270; agar dilution. As for the experimental part: as §1
Test [8] relates to Pseudomonas aeruginosa X239. It counts as cell-based. The conditions noted are these: P. aeruginosa X239; agar dilution. As for the experimental part:
as §1

For test [9], the system named is Streptococcus pyogenes C203. The test is classed as cell-based. The settings on record: S. pyogenes C203; agar dilution. As for the experimental part:
as §1

The test system of test [10] is Streptococcus Group D X66. It counts as cell-based. The settings on record: agar dilution. As for the experimental part:
as §1

Test [11] has as its system Klebsiella pneumoniae X26. It counts as cell-based. The conditions noted are these: K. pneumoniae X26; agar dilution. On the procedure:
as §1

The next test deals with Escherichia coli EC14. The test is classed as cell-based. The settings on record: E. coli EC14; agar dilution. On the procedure: as §1
In test [12] the test system is Staphylococcus epidermidis 222. It counts as cell-based. The conditions noted are these: S. epidermidis 222; agar dilution. On the procedure:
as §1

Test [13] relates to Haemophilus influenzae C.L. It counts as cell-based. The conditions noted are these: H. influenzae C.L., ampicillin-sensitive strain; agar dilution. As for the experimental part:
as §1

Test [14] concerns Streptococcus pneumoniae Park I. The test is classed as cell-based. The conditions noted are these: S. pneumoniae Park I; agar dilution. As for the experimental part:
as §1

The test system of the next test is Staphylococcus aureus. Put plainly: protection of mice experimentally infected with test organism (Table X). The test is classed as in vivo. The settings on record: mice, subcutaneous, 1 and 4 hours postinfection. On the procedure:
(§2) The A82846 antibiotics have also shown in vivo antimicrobial activity against experimentally-induced infections in laboratory animals. When two doses of test compound were administered to mice experimentally infected with the test organism, the activity observed was measured as an ED50 value [effective dose in mg/kg to protect 50% of the test animals: see Warren Wick, et al., J. Bacteriol. 81, 233-235 (1961)].
(§3) ^a mg/kg × 2; doses administered subcutaneously to mice 1 and 4

The test system of the next test is Streptococcus pyogenes. Described as above. It counts as in vivo. The settings on record: mice, subcutaneous, 1 and 4 hours postinfection. On the procedure: as §2, §3
In a further test the test system is Streptococcus pneumoniae. The test is described as above. The test is classed as in vivo. The conditions noted are these: mice, subcutaneous, 1 and 4 hours postinfection. As for the experimental part: as §2, §3

Converted amounts (≈) assume the structure as drawn. Bridge positions count the residues as written; N and C are the ends. Square brackets hold non-standard residues; d marks the D form. Peptide text beside a SMILES is read from it. * marks the point of attachment. Ileψ(thiazoline)Cys = CC[C@H](C)[C@H](N)C1=N[C@H](C(=O)*)CS1; dOrn = NCCC[C@@H](N)C(=O)O

With `C1N2CN3CN1CN(C2)C3` [mandelamine], the antibiotic resistance entry in test [1] (disc 3 μg) is recorded as “sensitive”.

With `CCn1cc(C(=O)O)c(=O)c2ccc(C)nc21` [nalidixic acid], in test [1] (disc 30 μg), the antibiotic resistance entry is listed as “resistant”.

On to `CO[C@H]1/C=C/O[C@@]2(C)Oc3c(C)c(O)c4c(O)c(c(/C=N/N5CCN(C)CC5)c(O)c4c3C2=O)NC(=O)/C(C)=C\C=C\[C@H](C)[C@H](O)[C@@H](C)[C@@H](O)[C@@H](C)[C@H](OC(C)=O)[C@@H]1C` [rifampin], for which the antibiotic resistance entry in test [1] (disc 5 μg) is reported as “sensitive”.

For `CC[C@H]1OC(=O)[C@H](C)[C@@H](O[C@H]2C[C@@](C)(OC)[C@@H](O)[C@H](C)O2)[C@H](C)[C@@H](O[C@@H]2O[C@H](C)C[C@H](N(C)C)[C@H]2O)[C@](C)(O)C[C@@H](C)C(=O)[C@H](C)[C@@H](O)[C@]1(C)O` [erythromycin], the antibiotic resistance entry in test [1] (disc 15 μg) is recorded as “resistant”.

Turning to `CO[C@H]1C[C@H](O[C@H]2[C@H](C)[C@@H](O[C@@H]3O[C@H](C)C[C@H](N(C)C)[C@H]3O)[C@@H](C)C[C@@]3(CO3)C(=O)[C@H](C)[C@@H](O)[C@@H](C)[C@@H](C)OC(=O)[C@@H]2C)O[C@@H](C)[C@@H]1O` [oleandomycin], in test [1] (disc 15 μg), the antibiotic resistance entry was “resistant”.

For the molecule polymixin B, in test [1] (disc 300 units), the antibiotic resistance entry is given as “resistant”. Also, the “Resistance to” value in the test with A82846 (300 units), in the test on N. orientalis (300 units) and with N. aerocolonigenes (300 units) was “+” throughout.

For the molecule neomycin, the antibiotic resistance entry in test [1] (disc 30 μg) is “sensitive”. The “Resistance to” value in the test with A82846 (30 μg), in the test on N. orientalis (30 μg) and with N. aerocolonigenes (30 μg) was “-” in each case.

Take `NC[C@H]1O[C@H](O[C@H]2[C@H](O)[C@@H](O[C@H]3O[C@H](CO)[C@@H](O)[C@H](N)[C@H]3O)[C@H](N)C[C@@H]2N)[C@H](N)C[C@@H]1O` [tobramycin]: the antibiotic resistance result in [1] (disc 10 μg) is on record as “resistant”.

Regarding `CN[C@@H](CC(C)C)C(=O)N[C@H]1C(=O)N[C@H](CC(N)=O)C(=O)N[C@H]2C(=O)N[C@H]3C(=O)N[C@@H](C(=O)NC(C(=O)O)c4cc(O)cc(O)c4-c4cc3ccc4O)[C@@H](O[C@H]3C[C@](C)(N)[C@H](O)[C@@H](C)O3)c3ccc(cc3)Oc3cc2cc(c3O[C@H]2O[C@@H](CO)[C@@H](O)[C@H](O)[C@@H]2O[C@H]2C[C@](C)(N)[C@H](O)[C@@H](C)O2)Oc2ccc(cc2)[C@@H]1O` (stereo partly drawn) [A82846C], the MIC in [2] is 1 mg/L (≈ 0.656 µM); in test [3], 1 mg/L (≈ 0.656 µM); in [4] it was “-- (Not active at 128 mcg/mL, the highest level tested)”; in test [5] it was 4 mg/L (≈ 2.63 µM); in test [6], 1 mg/L (≈ 0.656 µM); in [7], 1 mg/L (≈ 0.656 µM). Further, the MIC result was “-- (Not active at 128 mcg/mL, the highest level tested)” in test [8]; 1 mg/L (≈ 0.656 µM) in [9]; 2 mg/L (≈ 1.31 µM) in test [10]; “-- (Not active at 128 mcg/mL, the highest level tested)” in test [11]; “-- (Not active at 128 mcg/mL, the highest level tested)” in the test on Escherichia coli EC14; 1 mg/L (≈ 0.656 µM) in [12]. In addition, the MIC entry in [13] was “-- (Not active at 128 mcg/mL, the highest level tested)”; in test [14], 2 mg/L (≈ 1.31 µM). For the same molecule, the “ED50 Value” amounted to 2.18 mg/kg × 2 with Staphylococcus aureus, 2.71 mg/kg × 2 with Streptococcus pyogenes and 5.87 mg/kg × 2 in the test on Streptococcus pneumoniae.

Take gentamicin: in [1] (disc 10 μg), the antibiotic resistance result was “resistant”. In addition, the entries for the “Resistance to” value with A82846 (10 μg), in the test with N. orientalis (10 μg) and in the test on N. aerocolonigenes (10 μg) were “+”, “-” and “-”, respectively.

Regarding `Nc1ccc(S(=O)(=O)Nc2ncccn2)cc1` [sulfadiazine], in test [1] (disc 300 μg), the antibiotic resistance entry is listed as “resistant”.

As for `CCC[C@@H]1C[C@@H](C(=O)N[C@@H]([C@H]2O[C@H](SC)[C@H](O)[C@@H](O)[C@H]2O)[C@@H](C)O)N(C)C1` [lincomycin], in [1] (disc 2 μg), the antibiotic resistance entry is “resistant”.

With `CN(C)C1C(=O)C(C(N)=O)=C(O)C2(O)C(=O)C3=C(O)c4c(O)cccc4C(C)(O)C3CC12` (stereo not drawn) [tetracycline], in test [1] (disc 30 μg), the antibiotic resistance entry was “sensitive”.

`[H]/N=C(/N)N[C@H]1[C@H](O)[C@@H](O)[C@H](O[C@@H]2O[C@@H](C)[C@](O)(C=O)[C@H]2O[C@@H]2O[C@@H](CO)[C@H](O)[C@@H](O)[C@@H]2NC)[C@@H](N/C(N)=N\[H])[C@@H]1O` [streptomycin]: the antibiotic resistance result in [1] (disc 10 μg) is listed as “resistant”.

Consider `CO[C@@H]1[C@@H](OC(N)=O)[C@@H](O)[C@H](Oc2ccc3c(O)c(NC(=O)c4ccc(O)c(CC=C(C)C)c4)c(=O)oc3c2C)OC1(C)C` [novobiocin], for which the antibiotic resistance result in [1] (disc 30 μg) is “sensitive”.

`COc1cc(Cc2cnc(N)nc2N)cc(OC)c1OC` [trimethoprim]: the antibiotic resistance result in [1] (disc 5 μg) was “resistant”.

Turning to `CC1(C)S[C@@H]2[C@H](NC(=O)Cc3ccccc3)C(=O)N2[C@H]1C(=O)O` [penicillin G], the antibiotic resistance result in [1] (disc 10 units) was “resistant”.

Regarding `CC[C@H](C)[C@H](N)C1=N[C@H](C(=O)N[C@@H](CC(C)C)C(=O)N[C@H](CCC(=O)O)C(=O)N[C@H](C(=O)N[C@H]2CCCCNC(=O)[C@H](CC(N)=O)NC(=O)[C@@H](CC(=O)O)NC(=O)[C@H](Cc3cnc[nH]3)NC(=O)[C@@H](Cc3ccccc3)NC(=O)[C@H]([C@@H](C)CC)NC(=O)[C@@H](CCCN)NC2=O)[C@@H](C)CC)CS1` [bacitracin] ({Ileψ(thiazoline)Cys}-L[dE]IK[dOrn]I[dF]H[dD]N; lactam 4-C), the antibiotic resistance result in test [1] (disc 10 units) is on record as “resistant”.

As to `CC(=O)OCC1=C(C(=O)O)N2C(=O)[C@@H](NC(=O)Cc3cccs3)[C@H]2SC1` [cephalothin], the antibiotic resistance entry in [1] (disc 30 μg) was “resistant”.

`O=C(N[C@H](CO)[C@H](O)c1ccc([N+](=O)[O-])cc1)C(Cl)Cl` [chloramphenicol]: the antibiotic resistance result in test [1] (disc 30 μg) is reported as “sensitive”.
